The values below come from publication PMC9867241, “Antioxidant and Cytotoxic Activity of New Polyphenolic Derivatives of Quinazolin-4(3H)-one: Synthesis and In Vitro Activities Evaluation” (Pharmaceutics, 2022).

Data set [1] in a line: ABTS˙+ radical scavenging assay. As for the experimental part: The stock solutions (1 mg/mL) of the tested compounds and the controls were obtained, by dissolving the substances in dimethyl sulfoxide (DMSO). Using Jasco V-530, an UV-VIS spectrophotometer (Jasco International Co., Ltd., Tokyo, Japan), we performed the colorimetric determinations in low-volume single-use 10 mm width cuvettes.
The assays were performed in triplicate and the results are presented as averages for each assay.

Data set [2] concerns normal human foreskin fibroblasts (BJ). Description: Cytotoxicity, Alamar blue assay, BJ cells. The data set is classed as cell-based. The note with it: Homo sapiens, Fibroblast; 24 h exposure, Alamar blue. The source says:
(§1) Normal human foreskin (BJ) fibroblasts and two types of cancer cells, namely A549 (lung adenocarcinoma) and LNCaP (prostate carcinoma) purchased from American Type Culture Collection (Manassas, VA, USA), were used in the experiments. Each cell line was maintained in a different culture medium, depending on the metabolic necessities of the cells. BJ cells were maintained in Dulbecco’s modified Eagle’s medium (DMEM) with low glucose. A549 cells were maintained in DMEM with high glucose […], while LNCaP cells were grown in Roswell Park Memorial Institute (RPMI) 1640 medium with high glucose (5 g/L). All media used were supplemented with 10% fetal bovine serum (FBS) and were refreshed every two days. Cells were used in experiments or subcultured when they reached 70–80% confluence.
(§2) In 100 µL in 96-well plates, a number of 30,000 LNCaP cells, 15,000 A549 cells, and 7500 normal (BJ) cells were seeded. Because the cells have different sizes and volumes, the purpose of the different seedings was to achieve a confluency of 70–80% after 24 h. All types of cells were further exposed to the synthesized compounds (5a–d and 6a–d) for 24 h, at a concentration ranging from 12.5 to 100 µg/mL. Post-exposure, the media were removed, and the cells were washed with phosphate buffer saline (PBS). Their viability was evaluated using Alamar blue (AB) assay as previously described. Briefly, the cells were incubated with a 200 µM resazurin solution for 4 h. Using a Synergy 2 multi-mode microplate reader, we measured the fluorescence. The measurement was performed at λexcitation = 530/25 nm; λemission = 590/35 nm. We conducted the experiments using three biological replicates, each one including 6 technical replicates. As negative controls (NC), cells exposed to culture medium containing 0.2% DMSO were used. Compared to the NC (100%), the results were expressed as relative values. We used IC50 values for the potency evaluation, and calculated them for each cell line, using the dose-effect curves obtained by fitting the experimental data with a 4-parameter logistic curve.
(§3) Mean values ± standard deviation (SD) values of at least three biological replicates were used to calculate experimental data. One-way analysis of variance (ANOVA) with a post hoc Holm–Sidak test was used to statistically examine the data. Using SigmaPlot 11.0 software (Systat, Software Inc., Chicago, IL, USA), we performed the graphical display and data analysis. From a statistical point of view, the results were considered different, at values of p < 0.05.
For orientation: Resazurin is reduced to fluorescent resorufin, in cell work by metabolically active cells.

A short description of data set [3]: Phosphomolybdate assay for total antioxidant capacity (TAC). Further details: concentration or dose not given beside the values. Conditions: for TAC, % of Activity of Trolox: relative to Trolox; for TAC, % of Activity of Ascorbic Acid: relative to ascorbic acid. The source says: Using the phosphomolybdate assay, we determined the total antioxidant capacity (TAC) of the tested compounds. We measured the solutions’ absorbances against a blank sample at λ = 695 nm, using a previously reported procedure by our group, based on initial literature reports. Using Equation (4), we calculated the TAC of 5a–d and 6a–d compounds.
At acidic pH, the tested compounds transfer one electron to Mo^6+ to reduce it to Mo^5+.

A short description of data set [4]: Ferric reducing antioxidant potential (FRAP) assay. More on the design: concentration or dose not given beside the values. The note with it: for FRAP, % of Activity of Trolox: relative to Trolox; for FRAP, % of Activity of Ascorbic Acid: relative to ascorbic acid. As for the experimental part: In the ferric reducing antioxidant potential (FRAP) assay, in comparison with a blank sample prepared from DMSO mixed with FRAP reagent, the absorbance of the solutions was measured at λ = 593 nm. The compounds were tested according to a modified method proposed initially by Benzie and Strain [31]. Using Equation (4), we calculated the reducing antioxidant potential of 5a–d and 6a–d as a percentage of the activity of the reference compounds:(4) % of control activity=sample absorbance/reference absorbance×100
Ferrous ions resulting from the reduction of ferric ions in the presence of an antioxidant compound form a blue-colored complex (Fe^2+-TPTZ) at pH = 3.6 with tripyridyltriazine (2,4,6-tris(2-pyridyl)-s-triazine). The intensity of the blue complex formed is proportional to the number of ferrous ions. Compounds 5a, 5c and 5d expressed a good electron donation capacity.

Data set [5] has as its system A549 (lung adenocarcinoma) cells. Description: Cytotoxicity, Alamar blue assay, A549 cells. The class given is cell-based. Conditions: Homo sapiens, 24 h exposure.
Excerpt: as §1, §2, §3

Data set [6] is described as follows: NO˙ radical scavenging assay (Griess reaction). Conditions: PBS pH 7.4, sodium nitroprusside. Here is the method: The scavenging of the NO˙ radical was performed by applying previously reported protocols. The in vitro protocol describes the decomposition of sodium nitroprusside in phosphate buffered saline (PBS) at pH = 7.4. The NO˙ radicals would be involved in a Griess reaction if they were not captured by the tested compounds. This reaction results from the formation of an azo dye, with maximum absorption at 546 nm. This azo dye is formed from sulfanilic acid and naphthyl ethylenediamine dichloride.
For orientation: Griess reagent forms a coloured azo dye with nitrite.

Data set [7] in a line: Reducing power (RP) assay. More on the design: concentration or dose not given beside the values. Conditions: for RP, % of Activity of Trolox: relative to Trolox; for RP, % of Activity of Ascorbic Acid: relative to ascorbic acid. Here is the method:
Herein, the iron (III) is not free in the solution as it was in the FRAP assay and is complexed by cyanide ions. The evaluation of the reducing power (RP) was performed at a pH closer to neutral (pH = 6.6); this is different from the FRAP test, which is performed in an acidic environment. Against a blank sample, the absorbances were measured at λ = 700 nm. The followed protocol was based on the adaptation of previously reported protocols and was previously reported by our group. Using Equation (4), we calculated the reducing power of the 5a–d and 6a–d compounds as a percentage of the reference compounds activity.
The evaluated compounds can reduce ferricyanide to ferrocyanide, in the presence of ferric ions, resulting in the Perl’s Prussian which gives blue. The higher the percentage of reducing power, the higher was the absorbance that was measured due to a higher amount of colored complex resulting from the reaction.

In brackets after ≈: the same amount, converted by molar mass.

Consider `C=CCn1c(SCC(=O)NN=Cc2ccc(O)c(O)c2O)nc2ccccc2c1=O` [Compound 5a, 2-((3-Allyl-4-oxo-3,4-dihydroquinazolin-2-yl)thio)-N’-(2,3,4-trihydroxybenzylidene)acetohydrazide], for which the melting point came to 213 °C. Moreover, in data set [1], inhibition was half-maximal at 3.87 µM (IC50) and the “IC50 (ABTS˙^+ scavenging)” value is on record as 1.65 µg/mL (≈ 3.87 µM). The “% of ABTS˙^+ Scavenging” value in data set [1] (0.83 µg/mL) worked out at 38.14%. Moreover, the “% of ABTS˙^+ Scavenging” value in data set [1] (1.67 µg/mL) turned out to be 51.47%. For the same molecule, the “% of ABTS˙^+ Scavenging” value in data set [1] (3.33 µg/mL) is recorded as 72.00%. Also, in data set [1] (4.99 µg/mL), the “% of ABTS˙^+ Scavenging” value is “+ (+ represents more than 95%)”. Besides, the “% of ABTS˙^+ Scavenging” value in data set [1] (6.66 µg/mL) was “+ (+ represents more than 95%)”. Further, the “% of ABTS˙^+ Scavenging” value in data set [1] (9.99 µg/mL) is on record as “+ (+ represents more than 95%)”. Also, the “% of ABTS˙^+ Scavenging” value in data set [1] (13.32 µg/mL) is “+ (+ represents more than 95%)”. For the same molecule, the half-inhibitory concentration (IC50) in data set [2] is over 100 µg/mL. In data set [3], the “TAC, % of Activity of Trolox” value amounted to 176.42% and the “TAC, % of Activity of Ascorbic Acid” value worked out at 91.43%. Moreover, in data set [4], the “FRAP, % of Activity of Trolox” value was 98.88% and the “FRAP, % of Activity of Ascorbic Acid” value worked out at 86.18%. The IC50 in data set [5] turned out to be 30.9 µg/mL. The “% of NO˙ Scavenged” value in data set [6] is recorded as 38.39%. In addition, in data set [7], the “RP, % of Activity of Trolox” value worked out at 92.09% and the “RP, % of Activity of Ascorbic Acid” value is on record as 63.20%.

Consider `CC(=NNC(=O)CSc1nc2ccccc2c(=O)n1Cc1ccccc1)c1ccc(O)cc1O` [Compound 6b, 2-((3-Benzyl-4-oxo-3,4-dihydroquinazolin-2-yl)thio)-N’-(1-(2,4-dihydroxyphenyl)ethylidene)acetohydrazide], for which the IC50 is 8.7 µM in data set [1], over 100 µg/mL in data set [2] and 42.2 µg/mL in data set [5]. In addition, the “IC50 (ABTS˙^+ scavenging)” value in data set [1] was determined as 4.13 µg/mL (≈ 8.7 µM). The “% of ABTS˙^+ Scavenging” value in data set [1] (0.83 µg/mL) is listed as 26.26%; in data set [1] (1.67 µg/mL), 33.32%; in data set [1] (3.33 µg/mL), 44.60%; in data set [1] (4.99 µg/mL), 55.88%; in data set [1] (6.66 µg/mL) it was 68.23%; in data set [1] (9.99 µg/mL), 90.98%. Moreover, the “% of ABTS˙^+ Scavenging” value in data set [1] (13.32 µg/mL) is “+ (+ represents more than 95%)”. Besides, the “TAC, % of Activity of Trolox” value in data set [3] worked out at 101.03%. For the same molecule, in data set [3], the “TAC, % of Activity of Ascorbic Acid” value turned out to be 52.36%. In addition, the “FRAP, % of Activity of Trolox” value in data set [4] is 21.24%. Also, the “FRAP, % of Activity of Ascorbic Acid” value in data set [4] turned out to be 18.51%. In addition, the “% of NO˙ Scavenged” value in data set [6] was 33.31%. Besides, the “RP, % of Activity of Trolox” value in data set [7] is 29.01%. Also, the “RP, % of Activity of Ascorbic Acid” value in data set [7] is on record as 19.91%.

For the molecule `CCn1c(SCC(=O)NN=C(C)c2ccc(O)cc2O)nc2ccccc2c1=O` [Compound 6c, N’-(1-(2,4-dihydroxyphenyl)ethylidene)-2-((3-ethyl-4-oxo-3,4-dihydroquinazolin-2-yl)thio)acetohydrazide], the results for the IC50 in data set [1], in data set [2] and in data set [5] were 9.84 µM, over 100 µg/mL and over 100 µg/mL, respectively. In addition, the “IC50 (ABTS˙^+ scavenging)” value in data set [1] turned out to be 4.06 µg/mL (≈ 9.84 µM). The “% of ABTS˙^+ Scavenging” value in data set [1] (0.83 µg/mL) turned out to be 29.08%; in data set [1] (1.67 µg/mL) it was 34.73%; in data set [1] (3.33 µg/mL), 43.19%; in data set [1] (4.99 µg/mL), 54.47%; in data set [1] (6.66 µg/mL) it was 68.58%; in data set [1] (9.99 µg/mL), 91.60%. The “% of ABTS˙^+ Scavenging” value in data set [1] (13.32 µg/mL) is on record as “+ (+ represents more than 95%)”. For the same molecule, the “TAC, % of Activity of Trolox” value in data set [3] is on record as 110.05%. For the same molecule, in data set [3], the “TAC, % of Activity of Ascorbic Acid” value amounted to 57.03%. In addition, the “FRAP, % of Activity of Trolox” value in data set [4] worked out at 29.65%. Also, the “FRAP, % of Activity of Ascorbic Acid” value in data set [4] worked out at 25.85%. For the same molecule, in data set [6], the “% of NO˙ Scavenged” value worked out at 30.62%. Further, in data set [7], the “RP, % of Activity of Trolox” value is listed as 28.98%. The “RP, % of Activity of Ascorbic Acid” value in data set [7] was determined as 19.89%.

Usually IC50 stands for the midpoint of a concentration-inhibition curve. The term melting point denotes the temperature, or range, at which the solid turns liquid.
